ChEMBL document CHEMBL1137364, “Synthesis and structure-activity relationships of uracil nucleotide derivatives and analogues as agonists at human P2Y2, P2Y4, and P2Y6 receptors” (J Med Chem, 2006)
pEC50: −log10 of the molar value. Calls of active or inactive are those of the source. No cut-off for these calls is given here.

What was measured:
P2Y purinoceptor 2 [1] = target: T1, P2Y purinoceptor 2 (Homo sapiens, UniProt P41231); experiment: Agonist activity at human P2Y2 receptor expressed in 1321N1 cells assessed as IP accumulation by SPA at 1 uM; format: functional, cell-based
T1 sequence (P41231 whole entry): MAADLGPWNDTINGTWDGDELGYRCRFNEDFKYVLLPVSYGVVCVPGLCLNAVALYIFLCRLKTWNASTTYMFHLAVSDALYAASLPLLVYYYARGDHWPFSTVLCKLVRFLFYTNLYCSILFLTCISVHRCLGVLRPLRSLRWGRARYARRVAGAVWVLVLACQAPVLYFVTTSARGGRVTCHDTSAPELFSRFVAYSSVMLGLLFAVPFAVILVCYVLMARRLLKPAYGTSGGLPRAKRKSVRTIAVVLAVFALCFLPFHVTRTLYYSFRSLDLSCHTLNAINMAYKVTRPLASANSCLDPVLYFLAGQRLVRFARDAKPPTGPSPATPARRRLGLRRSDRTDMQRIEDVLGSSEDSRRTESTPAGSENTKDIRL

P2Y purinoceptor 4 [2] = target: T2, P2Y purinoceptor 4 (Homo sapiens, UniProt P51582); experiment: Agonist activity at human P2Y4 receptor expressed in 1321N1 cells assessed as IP accumulation by SPA at 1 uM; format: functional, cell-based
Target sequence in this assay (P51582 whole entry): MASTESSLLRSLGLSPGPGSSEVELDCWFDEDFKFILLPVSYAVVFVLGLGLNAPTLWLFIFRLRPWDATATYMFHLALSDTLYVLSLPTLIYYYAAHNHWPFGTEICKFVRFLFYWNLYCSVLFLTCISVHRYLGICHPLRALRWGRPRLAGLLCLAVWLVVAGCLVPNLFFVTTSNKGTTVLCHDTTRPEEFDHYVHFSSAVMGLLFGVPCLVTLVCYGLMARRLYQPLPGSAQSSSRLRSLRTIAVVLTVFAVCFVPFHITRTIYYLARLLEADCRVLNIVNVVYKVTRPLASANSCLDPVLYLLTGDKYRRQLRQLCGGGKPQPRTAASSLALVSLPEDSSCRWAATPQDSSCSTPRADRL

P2Y purinoceptor 6 [3] = target: T3, P2Y purinoceptor 6 (Homo sapiens, UniProt Q15077); experiment: Agonist activity at human P2Y6 receptor expressed in 1321N1 cells assessed as IP accumulation by SPA; format: functional, cell-based
Target sequence in this assay (Q15077 whole entry): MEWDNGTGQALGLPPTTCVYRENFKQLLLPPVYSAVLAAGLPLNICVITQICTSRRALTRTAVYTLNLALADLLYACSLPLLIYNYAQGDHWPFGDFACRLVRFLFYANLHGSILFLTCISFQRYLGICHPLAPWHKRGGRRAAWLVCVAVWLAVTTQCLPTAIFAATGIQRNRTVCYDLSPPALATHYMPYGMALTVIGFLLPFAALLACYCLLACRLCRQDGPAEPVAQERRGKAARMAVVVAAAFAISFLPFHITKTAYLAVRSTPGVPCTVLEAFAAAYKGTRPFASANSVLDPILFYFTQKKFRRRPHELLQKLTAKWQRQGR

P2Y purinoceptor 2 [4] = target: T1, P2Y purinoceptor 2; experiment: Agonist activity at human P2Y2 receptor expressed in 1321N1 cells assessed as IP accumulation by SPA at 100 uM; format: functional, cell-based
P2Y purinoceptor 4 [5] = target: T2, P2Y purinoceptor 4; experiment: Agonist activity at human P2Y4 receptor expressed in 1321N1 cells assessed as IP accumulation by SPA; format: functional, cell-based
Target sequence in this assay (P51582 whole entry): as the sequence (P51582 whole entry) above

P2Y purinoceptor 4 [6] = target: T2, P2Y purinoceptor 4; experiment: Agonist activity at human P2Y4 receptor expressed in 1321N1 cells assessed as IP accumulation by SPA at 100 uM; format: functional, cell-based
Target sequence in this assay (P51582 whole entry): as above

P2Y purinoceptor 2 [7] = target: T1, P2Y purinoceptor 2; experiment: Agonist activity at human P2Y2 receptor expressed in 1321N1 cells assessed as IP accumulation by SPA; format: functional, cell-based
P2Y purinoceptor 6 [8] = target: T3, P2Y purinoceptor 6; experiment: Agonist activity at human P2Y6 receptor expressed in 1321N1 cells assessed as IP accumulation by SPA at 1 uM; format: functional, cell-based
Target sequence in this assay (Q15077 whole entry): as the sequence (Q15077 whole entry) above

P2Y purinoceptor 6 [9] = target: T3, P2Y purinoceptor 6; experiment: Agonist activity at human P2Y6 receptor expressed in 1321N1 cells assessed as IP accumulation by SPA at 100 uM; format: functional, cell-based
Target sequence in this assay (Q15077 whole entry): as above

P2Y purinoceptor 6 [10] = target: T3, P2Y purinoceptor 6; experiment: Antagonist activity at human P2Y6 receptor assessed as inhibition of UDP-induced IP accumulation at 100 uM
Target sequence in this assay (Q15077 whole entry, looked up): as the sequence (Q15077 whole entry) above

Homo sapiens [11] = species on record: Homo sapiens; experiment: Selectivity for human P2Y6 over P2Y4
P2Y purinoceptor 6 [12] = target: P2Y purinoceptor 6 (Rattus norvegicus, UniProt Q63371); experiment: Agonist activity at rat P2Y6 receptor assessed as IP accumulation by SPA; format: functional
Sequence of P2Y purinoceptor 6 (Rattus norvegicus, UniProt Q63371) (Q63371 whole entry): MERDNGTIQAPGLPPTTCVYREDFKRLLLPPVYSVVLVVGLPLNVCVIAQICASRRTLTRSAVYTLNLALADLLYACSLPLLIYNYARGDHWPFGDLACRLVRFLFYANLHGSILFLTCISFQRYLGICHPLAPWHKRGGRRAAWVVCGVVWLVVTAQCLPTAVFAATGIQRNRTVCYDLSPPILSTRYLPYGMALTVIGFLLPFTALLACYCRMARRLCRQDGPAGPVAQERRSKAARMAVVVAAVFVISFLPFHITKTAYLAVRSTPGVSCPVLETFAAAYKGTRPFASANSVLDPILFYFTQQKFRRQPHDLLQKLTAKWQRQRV

Homo sapiens [13] = species on record: Homo sapiens; experiment: Selectivity for human P2Y6 over P2Y2
P2Y purinoceptor 2 [14] = target: T1, P2Y purinoceptor 2; experiment: Antagonist activity at human P2Y2 receptor assessed as inhibition of UTP-induced IP accumulation at 100 uM; format: functional
P2Y purinoceptor 4 [15] = target: T2, P2Y purinoceptor 4; experiment: Antagonist activity at human P2Y4 receptor assessed as inhibition of UTP-induced IP accumulation at 100 uM
Target sequence in this assay (P51582 whole entry, looked up): as the sequence (P51582 whole entry) above

Row | SMILES | Activity (P2Y purinoceptor 2 [1]) [%] | Activity (P2Y purinoceptor 4 [2]) [%] | pEC50 (P2Y purinoceptor 6 [3]) | Activity (P2Y purinoceptor 2 [4]) [%] | pEC50 (P2Y purinoceptor 4 [5]) | Activity (P2Y purinoceptor 4 [6]) [%] | pEC50 (P2Y purinoceptor 2 [7]) | Activity (P2Y purinoceptor 6 [8]) [%] | Activity (P2Y purinoceptor 6 [9]) [%] | Activity (P2Y purinoceptor 6 [10]) | Ratio (Homo sapiens [11]) | pEC50 (P2Y purinoceptor 6 [12]) | Ratio (Homo sapiens [13]) | Activity (P2Y purinoceptor 2 [14]) | Activity (P2Y purinoceptor 4 [15])
1 | O=C(Cn1c(=O)ccn([C@@H]2O[C@H](COP(=O)(O)OP(=O)(O)OP(=O)(O)O)[C@@H](O)[C@H]2O)c1=O)c1ccccc1 | 38 | 10 | < 6.00 | 103 | < 6.00 | 54 | < 6.00 | 27 | 100 |  |  |  |  |  | 
2 | O=c1[nH]c(=O)n([C@@H]2O[C@H](COP(=O)(O)O)[C@@H](O)[C@H]2O)cc1Br | 2 |  | < 6.00 | 70 | < 4.00 | 21 | < 6.00 | 43 | 124 |  |  |  |  |  | 
3 | Cc1cc(=O)n([C@@H]2O[C@H](COP(=O)(O)O)[C@@H](O)[C@H]2O)c(=O)[nH]1 |  |  | < 4.00 | 17 | < 4.00 | 6 | < 4.00 |  | 2 |  |  |  |  |  | 
4 | O=C(Cn1c(=O)ccn([C@@H]2O[C@H](COP(=O)(O)OP(=O)(O)OP(=O)(O)O)[C@@H](O)[C@H]2OP(=O)(O)O)c1=O)c1ccccc1 | 54 |  | < 6.00 | 107 | < 4.00 | 0 | ≥ 6.00 | 0 | 75 |  |  |  |  |  | 
5 | O=c1[nH]c(=O)n([C@@H]2O[C@H](COP(=O)(O)OP(=O)(O)C(Cl)(Cl)P(=O)(O)O)[C@@H](O)[C@H]2O)cc1Br |  |  | 6.92 |  | 5.40 |  | 6.45 |  |  |  |  |  |  |  | 
6 | O=c1cc(O)n([C@@H]2O[C@H](COP(=O)(O)O)[C@@H](O)[C@H]2O)c(=O)[nH]1 |  |  | < 4.00 | 11 | < 4.00 | 11 | < 4.00 |  | 0 |  |  |  |  |  | 
7 | CCCc1cc(=O)n([C@@H]2O[C@H](COP(=O)(O)OP(=O)(O)OP(=O)(O)O)[C@@H](O)[C@H]2O)c(=O)[nH]1 | 16 |  | < 4.00 | 83 | < 4.00 | 4 | < 6.00 | 0 | 23 | inactive |  |  |  | inactive | inactive
8 | CCCc1cc(=O)n([C@@H]2O[C@H](COP(=O)(O)OP(=O)(O)OP(=O)(O)O)[C@H]3OP(=O)(O)O[C@H]32)c(=O)[nH]1 | 24 |  | < 4.00 | 69 | < 4.00 | 1 | < 6.00 |  | 8 |  |  |  |  |  | 
9 | CCCc1cc(=O)n([C@@H]2O[C@H](COP(=O)(O)O)[C@@H](O)[C@H]2O)c(=O)[nH]1 |  |  | < 4.00 | 9 | < 4.00 | 5 | < 4.00 |  | 26 |  |  |  |  |  | 
10 | O=C(Cn1c(=O)ccn([C@@H]2O[C@H](COP(=O)(O)O)[C@@H](O)[C@H]2O)c1=O)c1ccccc1 |  |  | < 4.00 | 9 | < 4.00 | 2 | < 4.00 |  | 16 | inactive |  |  |  | inactive | inactive
11 | O=C(Cn1c(=O)ccn([C@@H]2O[C@H](COP(=O)(O)OP(=O)(O)O)[C@@H](O)[C@H]2O)c1=O)c1ccccc1 | 22 |  | 7.15 | 85 | < 4.00 | 11 | < 6.00 |  |  |  |  |  |  |  | 

Further lines, results first:

Row | Activity (P2Y purinoceptor 2 [1]) [%] | Activity (P2Y purinoceptor 4 [2]) [%] | pEC50 (P2Y purinoceptor 6 [3]) | Activity (P2Y purinoceptor 2 [4]) [%] | pEC50 (P2Y purinoceptor 4 [5]) | Activity (P2Y purinoceptor 4 [6]) [%] | pEC50 (P2Y purinoceptor 2 [7]) | Activity (P2Y purinoceptor 6 [8]) [%] | Activity (P2Y purinoceptor 6 [9]) [%] | Activity (P2Y purinoceptor 6 [10]) | Ratio (Homo sapiens [11]) | pEC50 (P2Y purinoceptor 6 [12]) | Ratio (Homo sapiens [13]) | Activity (P2Y purinoceptor 2 [14]) | Activity (P2Y purinoceptor 4 [15]) | SMILES
12 | 42 | 18 | 6.62 | 91 | < 6.00 | 73 | < 6.00 |  |  |  |  |  |  |  |  | O=c1ccn([C@@H]2O[C@H](COP(=O)(O)OP(=O)(O)O)[C@@H](O)[C@H]2O)c(=S)[nH]1
13 | 6 |  | < 4.00 | 51 | < 4.00 | 2 | ≤ 4.00 |  | 18 |  |  |  |  |  |  | O=c1ccn([C@@H]2O[C@H](COP(=O)(O)O)[C@@H](O)[C@H]2O)c(=S)[nH]1
14 |  |  | < 6.00 | 28 | < 4.00 | 0 | < 4.00 |  | 23 | inactive |  |  |  |  |  | CCCc1cc(=O)n([C@@H]2O[C@H](COP(=O)(O)OP(=O)(O)O)[C@@H](O)[C@H]2O)c(=O)[nH]1
15 | 10 |  | < 6.00 | 99 | < 4.00 | 0 | < 6.00 | 8 | 121 |  |  |  |  |  |  | Cn1c(=O)ccn([C@@H]2O[C@H](COP(=O)(O)OP(=O)(O)O)[C@@H](O)[C@H]2O)c1=O
16 |  |  | 7.38 |  |  |  |  |  |  |  |  |  |  |  |  | O=c1ccn([C@@H]2O[C@H](COP(=O)(O)OP(=O)(O)O)[C@@H](O)[C@H]2O)c(=O)[nH]1 [URIDINE_DIPHOSPHATE]
17 |  |  | < 6.00 |  | 5.53 |  | 6.25 | 2 | 109 |  |  |  |  |  |  | Cn1c(=O)ccn([C@@H]2O[C@H](COP(=O)(O)OP(=O)(O)OP(=O)(O)O)[C@@H](O)[C@H]2O)c1=O
18 |  |  | 6.82 |  | 5.14 |  | 5.44 |  |  |  | 48 | 6.89 | 24 |  |  | O=c1[nH]c(=O)n([C@@H]2O[C@H](COP(=O)(O)OP(=O)(O)O)[C@@H](O)[C@H]2O)cc1Br
19 | 25 |  | < 6.00 | 69 | < 4.00 | 7 | < 6.00 | 0 | 108 |  |  |  |  |  |  | Cc1cc(=O)n([C@@H]2O[C@H](COP(=O)(O)OP(=O)(O)O)[C@@H](O)[C@H]2O)c(=O)[nH]1
20 | 6 | 11 | < 4.00 | 80 | < 4.00 | 12 | < 6.00 | 0 | 43 | inactive |  |  |  | inactive | inactive | O=c1cc(O)n([C@@H]2O[C@H](COP(=O)(O)OP(=O)(O)OP(=O)(O)O)[C@@H](O)[C@H]2O)c(=O)[nH]1
21 |  |  | 6.54 |  | 5.46 |  | 6.46 |  |  |  |  |  |  |  |  | O=c1[nH]c(=O)n([C@@H]2O[C@H](COP(=O)(O)OP(=O)(O)OP(=O)(O)O)[C@@H](O)[C@H]2O)cc1Br
22 |  |  | < 6.00 |  | 5.75 |  | 7.30 | 44 | 118 |  |  |  |  |  |  | O=c1ccn([C@@H]2O[C@H](COP(=O)(O)OP(=O)(O)OP(=O)(O)O)[C@@H](O)[C@H]2O)c(=S)[nH]1
23 | 18 | 8 | < 6.00 | 93 | < 4.00 | 29 | < 6.00 | 0 | 72 | inactive |  |  |  | inactive | inactive | Cc1cc(=O)n([C@@H]2O[C@H](COP(=O)(O)OP(=O)(O)OP(=O)(O)O)[C@@H](O)[C@H]2O)c(=O)[nH]1
24 | 3 |  | ≤ 4.00 | 30 | < 4.00 | 3 | < 4.00 | 0 | 51 |  |  |  |  |  |  | Cn1c(=O)ccn([C@@H]2O[C@H](COP(=O)(O)O)[C@@H](O)[C@H]2O)c1=O
25 |  |  |  |  | 7.06 |  | 7.37 |  |  |  |  |  |  |  |  | O=c1ccn([C@@H]2O[C@H](COP(=O)(O)OP(=O)(O)OP(=O)(O)O)[C@@H](O)[C@H]2O)c(=O)[nH]1 [URIDINE TRIPHOSPHATE]
